Assay [1] deals with human Kv1.3. The conditions noted are these: cited from earlier work; for IC50: human Kv1.3 channel blocking, patch-clamp, read-out: IC50, Kv1.x blocking (Kv1.3). The text has this: Table 1 Summary of chimeric protein-binding prediction studies in the light of IC50 values | column: Kv1.x blocking / IC50 (nM) || Peptide toxins of venomous animal origin as lead molecules for optimization may offer an advantage over small molecules in terms of potentially greater affinity and specificity. These miniproteins are usually up to 50 amino acids in length and can adopt distinct conformation with secondary structural elements stabilized by several disulfide bonds ([9], [10], [11]). Due to their considerable surface area, miniproteins can form stable complexes with target proteins through extensive interaction surfaces ([12], [13]). The miniprotein Kv1.3 blocker drug candidate, Dalazatide—a synthetic derivative ... || Our initial investigation focused on assessing the relative binding affinities of various channel-blocking toxins to the T-only version of the KcsA-Kv1.3 chimera. Subsequently, we evaluated whether these affinities aligned with the toxins' blocking efficacy on native human Kv1.3 channels, as determined by patch-clamp assay.

The target in assay [2] is T1, KcsA-Kv1.2 T-only chimera (Streptomyces lividans, UniProt P0A334, R52A/G53D/A54E/P55R/G56E/A57S/L59F/I60P/T61S/Y62I/R64D).
T1 sequence (P0A334 1-160 R52A/G53D/A54E/P55R/G56E/A57S/L59F/I60P/T61S/Y62I/R64D): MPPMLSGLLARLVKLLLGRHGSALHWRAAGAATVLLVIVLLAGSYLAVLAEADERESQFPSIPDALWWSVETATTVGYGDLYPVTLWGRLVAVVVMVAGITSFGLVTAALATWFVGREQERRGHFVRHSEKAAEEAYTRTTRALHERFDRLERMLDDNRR
Kind of assay: Phage-binding competition assay, KcsA-Kv1.2 T-only. Further details: species or system human Kv1.2 turret in Streptomyces lividans KcsA. To be noted: for binding to KcsA-Kv1.2 T-only, in words: HgTx1-phage competition, Fig. 7E (ligand-binding pattern). On the procedure: (§1) Phage stock solutions were diluted to working concentration with phage resuspension buffer supplemented with 2 mM DDM. For protein immobilization, the following amounts were used in a final volume of 50 μl/well: wt KcsA, 0.1 μg; KcsA-Kv1.1 T-only, 0.005 μg; KcsA-Kv1.1 T+F, 0.02 μg; KcsA-Kv1.2 T-only, 0.01 μg; KcsA-Kv1.2 T+F, 0.1 μg; KcsA-Kv1.3 T-only, 0.01 μg; and KcsA-Kv1.3 T+F, 0.1 μg. Protein samples were diluted in 50 μl of storage buffer (20 mM Tris pH8.0, 300 mM KCl, 2 mM DDM) and were added to the designated wells of a Pierce Clear, 96-Well Nickel Coated Plate (15442, Thermo Fisher Scientific), then incubated for 1 h at room temperature on a horizontal shaker at 130 rpm. The plate was blocked for 1 h at room temperature with 180 μl/well TBS-BSA supplemented with 1 mM DDM. Following blocking, the wells were washed 4× with washing buffer (300 μl TBS-Tween, 0.1% v/v) using a Wellwash Versa microplate washer (Thermo Fisher Scientific); then 50 μl phage solution (in TBS-BSA-Tween, 0.1% v/v, 2 mM DDM) at determined phage concentration was added to the wells and incubated for 1 h at room temperature on a horizontal shaker. The plate was washed 4× with washing buffer, then 50 μl anti-M13 IgG HRP (MA5-36125, Invitrogen) diluted to 1:2500 in TBS-Tween (0.1% v/v) was added to the wells and incubated for 1 h at room temperature. The plate was washed again 4× with 300 μl/well washing buffer. Finally, 50 μl/well 1-Step Ultra TMB-ELISA solution (34028, Thermo Fisher Scientific) was added to the wells, and the developing signal was stopped with 50 μl 1M HCl after 5 to 10 min. The light absorbance signal was read at 450 nm with Byonoy absorbance 96 plate reader (Byonoy GmbH).
(§2) For protein immobilization, the following amounts were used in a final volume of 50 μl/well: KcsA-Kv1.1 T-only, 0.005 μg; KcsA-Kv1.1 T+F, 0.01 μg; KcsA-Kv1.2 T-only, 0.025 μg; KcsA-Kv1.2 T+F, 0.0125 μg; KcsA-Kv1.3 T-only, 0.01 μg; and KcsA-Kv1.3 T+F, 0.1 μg. Protein samples were diluted in storage buffer. Binding of given concentrations of relevant ligand-displaying phages quantified by light absorbance ([…]) were investigated in a similar manner as in phage ELISA-binding assay, while different concentrations of competing toxin test substances were applied simultaneously. The results were converted to percent inhibitions (percent displacement) of the indicator phage binding, and relative affinities of the tested toxins were assessed by plotting percent displacements against log concentrations and determining half maximal inhibitory concentrations (IC50) by sigmoidal curve fitting using “Sigmoidal dose-response (variable slope) with least squares method” algorithm in GraphPad Prism 8 using the following equation: Y=Bottom+Top−Bottom/1+10^(LogEC50−×)⋅HillSlope

The target of assay [3] is T2, KcsA-Kv1.2 T-only chimera (Streptomyces lividans, UniProt P0A334, A54E/A57S/G53D/G56E/I60P/L59F/P55R/R52A/R64D/T61S/Y62I).
T2 sequence (P0A334 1-160 R52A/G53D/A54E/P55R/G56E/A57S/L59F/I60P/T61S/Y62I/R64D): T1 sequence (P0A334 1-160 R52A/G53D/A54E/P55R/G56E/A57S/L59F/I60P/T61S/Y62I/R64D)
Kind of assay: Phage-binding competition assay, KcsA-Kv1.2 T-only. Set-up: species or system human Kv1.2 turret in Streptomyces lividans KcsA. To be noted: displacement of HgTx1-phage; KcsA-Kv1.2 T-only 0.025 μg/well on nickel-coated plate; mean ± SD (n = 3); NQ = not quantifiable; read-out: IC50, T-only chimera (Kv1.2). On the procedure: as §1, §2

Assay [4] addresses T3, KcsA-Kv1.1 T+F chimera (Streptomyces lividans, UniProt P0A334, R52A/G53E/A54E/P55A/G56E/A57S/Q58H/L59F/I60S/T61S/Y62I/R64D/L81M).
T3 sequence (P0A334 1-160 R52A/G53E/A54E/P55A/G56E/A57S/Q58H/L59F/I60S/T61S/Y62I/R64D/L81M): T1 sequence (P0A334 1-160 R52A/G53D/A54E/P55R/G56E/A57S/L59F/I60P/T61S/Y62I/R64D) with D53E, R55A, Q58H, P60S, L81M
Nature of the assay: Phage-binding competition assay, KcsA-Kv1.1 T+F. Set-up: species or system human Kv1.1 turret and filter in Streptomyces lividans KcsA. To be noted: for competition binding to KcsA-Kv1.1 T+F, in words: ShK-phage competition, native peptide, Fig. 8F (ligand-binding pattern). The procedure:
as §1, §2

For assay [5], the target named is T4, KcsA-Kv1.1 T+F chimera (Streptomyces lividans, UniProt P0A334, A54E/A57S/G53E/G56E/I60S/L59F/L81M/P55A/Q58H/R52A/R64D/T61S/Y62I).
T4 sequence (P0A334 1-160 R52A/G53E/A54E/P55A/G56E/A57S/Q58H/L59F/I60S/T61S/Y62I/R64D/L81M): T1 sequence (P0A334 1-160 R52A/G53D/A54E/P55R/G56E/A57S/L59F/I60P/T61S/Y62I/R64D) with D53E, R55A, Q58H, P60S, L81M
Kind of assay: Phage-binding competition assay, KcsA-Kv1.1 T+F. To be noted: displacement of ShK-phage; KcsA-Kv1.1 T+F 0.01 μg/well on nickel-coated plate; mean ± SD (n = 3); NQ = not quantifiable; read-out: IC50, T+F chimera (Kv1.1). Set-up: species or system human Kv1.1 turret and filter in Streptomyces lividans KcsA. The procedure: as §1, §2

Positions count from the first letter of the chain named. Entries after “also recorded” stand apart in the source; their conditions may differ. Where a SMILES comes first, the peptide text is derived from it.

In general, IC50 refers to the concentration that gives 50% inhibition. Take `CC[C@H](C)[C@@H]1NC(=O)CNC(=O)[C@H](Cc2ccccc2)NC(=O)[C@H](CCC(N)=O)NC(=O)[C@H](C)NC(=O)[C@H](CCCCN)NC(=O)[C@@H]2CSSC[C@@H](C(=O)N[C@@H](Cc3ccc(O)cc3)C(=O)N3CCC[C@H]3C(=O)N[C@@H](Cc3c[nH]cn3)C(=O)O)NC(=O)[C@H](CCCCN)NC(=O)[C@@H]3CSSC[C@H](NC(=O)[C@H](CCC(N)=O)NC(=O)[C@H](CCCCN)NC(=O)[C@@H]4CCCN4C(=O)[C@H](CO)NC(=O)[C@H]([C@@H](C)O)NC(=O)[C@@H](NC(=O)[C@H](CCCCN)NC(=O)[C@@H](NC(=O)[C@H](CC(=O)O)NC(=O)[C@@H](NC(=O)[C@@H](NC(=O)[C@@H](N)[C@@H](C)O)C(C)C)[C@@H](C)CC)C(C)C)CSSC[C@H](NC(=O)[C@H](CCCCN)NC(=O)[C@H](C)NC(=O)CNC(=O)[C@H](C)NC(=O)[C@H](CCCNC(=N)N)NC1=O)C(=O)N[C@@H](CCSC)C(=O)N[C@@H](CC(N)=O)C(=O)NCC(=O)N[C@@H](CCCCN)C(=O)N3)C(=O)N[C@@H](CC(C)C)C(=O)N1CCC[C@H]1C(=O)N1CCC[C@H]1C(=O)N2` [HgTx1, Hongotoxin-1] (HELM PEPTIDE1{T.V.I.D.V.K.C.T.S.P.K.Q.C.L.P.P.C.K.A.Q.F.G.I.R.A.G.A.K.C.M.N.G.K.C.K.C.Y.P.H}$PEPTIDE1,PEPTIDE1,7:R3-29:R3|PEPTIDE1,PEPTIDE1,13:R3-34:R3|PEPTIDE1,PEPTIDE1,17:R3-36:R3$$$V2.0; N-terminus and C-terminus assumed): in assay [1], the “inhibition of Kv1.3, in words” value is given as “equivalent high potency” and the IC50 was 0.086 nM.

With `CC[C@H](C)[C@@H]1NC(=O)[C@@H]2CSSC[C@H](NC(=O)[C@H](CO)NC(=O)[C@@H](N)C(C)C)C(=O)N[C@@H]([C@@H](C)O)C(=O)NCC(=O)N[C@@H](CO)C(=O)N[C@@H](CCCCN)C(=O)N[C@@H](CC(=O)O)C(=O)N[C@@H](CSSC[C@@H](C(=O)N[C@@H](CCCCN)C(=O)N[C@H]3CSSC[C@@H](C(N)=O)NC(=O)CNC(=O)[C@H](Cc4ccc(O)cc4)NC3=O)NC(=O)[C@H](CO)NC(=O)[C@H](CCCCN)NC(=O)[C@H](CC(N)=O)NC1=O)C(=O)N[C@@H](Cc1ccc(O)cc1)C(=O)N[C@@H](C)C(=O)N1CCC[C@H]1C(=O)N[C@H]1CSSC[C@H](NC(=O)CNC(=O)[C@H]([C@@H](C)O)NC(=O)[C@H](CCC(N)=O)NC(=O)[C@H](CCCCN)NC(=O)[C@H](CCCNC(=N)N)NC1=O)C(=O)N1CCC[C@H]1C(=O)N[C@@H](CC(N)=O)C(=O)N[C@@H](C)C(=O)N[C@@H](CCCCN)C(=O)N2` [MTX, Maurotoxin] (HELM PEPTIDE1{V.S.C.T.G.S.K.D.C.Y.A.P.C.R.K.Q.T.G.C.P.N.A.K.C.I.N.K.S.C.K.C.Y.G.C.[am]}$PEPTIDE1,PEPTIDE1,3:R3-24:R3|PEPTIDE1,PEPTIDE1,9:R3-29:R3|PEPTIDE1,PEPTIDE1,13:R3-19:R3|PEPTIDE1,PEPTIDE1,31:R3-34:R3$$$V2.0; N-terminus and C-terminus assumed), the figures for the “binding to KcsA-Kv1.2 T-only, in words” value in assay [2] and in assay [2] (listed as MTX1) were “ShK > KTX1 > MTX; also recorded: completely lost its affinity” and “negligible binding”, respectively. Besides, the “Rank, T-only chimera (Kv1.2)” value in assay [2] (rank by competition IC50 among MTX, ShK, KTX1) is reported as 3. For the same molecule, the IC50 in assay [3] and in assay [5] was above 1000 nM each time. The “competition binding to KcsA-Kv1.1 T+F, in words” value is “ShK > KTX1 > MTX” in assay [4] and “negligible binding” in assay [4] (listed as MTX1). For the same molecule, the “Rank, T+F chimera (Kv1.1)” value in assay [4] (rank by competition IC50 among ShK, KTX1, MTX) stood at 3.

Turning to `CC[C@H](C)[C@H](NC(=O)[C@H](C)NC(=O)[C@H](C)NC(=O)[C@H](C)N)C(=O)N[C@@H](CO)C(=O)N[C@H]1CSSC[C@@H]2NC(=O)[C@H](CCCCN)NC(=O)CNC(=O)[C@H](CC(N)=O)NC(=O)[C@H](CCCCN)NC(=O)[C@@H]3CSSC[C@@H](C(N)=O)NC(=O)[C@H](Cc4ccc(O)cc4)NC(=O)[C@H](Cc4ccc(O)cc4)NC(=O)[C@@H]4CSSC[C@H](NC(=O)[C@H](CCCCN)NC(=O)[C@@H]5CCCN5C(=O)[C@@H]5CCCN5C(=O)[C@H](CSSC[C@H](NC(=O)[C@H](CCCCN)NC(=O)[C@H](CCCNC(=N)N)NC(=O)[C@H](CC(N)=O)NC(=O)[C@H](CCSC)NC2=O)C(=O)N[C@@H](CCCCN)C(=O)N4)NC(=O)[C@H](CCC(=O)O)NC(=O)[C@@H]2CCCN2C(=O)[C@H](CO)NC(=O)CNC(=O)[C@H](C(C)C)NC1=O)C(=O)N[C@@H](CCCNC(=N)N)C(=O)N[C@@H](C)C(=O)N[C@@H](CCC(N)=O)C(=O)NCC(=O)N3` [Vm24, Vm24 toxin], the IC50 in assay [1] is 0.003 nM.

These data come from paper PMC11002876, “KcsA-Kv1.x chimeras with complete ligand-binding sites provide improved predictivity for screening selective Kv1.x blockers” (The Journal of Biological Chemistry, 2024).
